Measured values reported in patent US5227391A, “Method for treatment of neurodegenerative diseases” (R. J. Reynolds Tobacco Company, priority 1992, dated 1993).

Molecular target: high affinity nicotinic receptors
Conditions: read-out: Ki (nM), inhibition of L-[3H]nicotine binding; mouse brain membranes (cerebellum removed), 10 nM L-[3H]nicotine, 2 hr at 4° C.; Ki calculated from IC50 by the method of Cheng et al.
Method: Mice were killed by cervical dislocation. Brains were removed and placed on an ice-cold platform. […] Prior to each centrifugation step, the suspension was incubated at 37° C. for 5 min. to promote hydrolysis of endogenous acetylcholine. The final pellet was overlayered with buffer and stored at -70° C.
The binding of L-[^3 H]nicotine was measured using a 2 hr. incubation at 4° C. Incubations contained about 500 μg of protein and were conducted in 12 mm×75 mm polypropylene test tubes in a final incubation volume of 250 μl. The incubation buffer was Krebs-Ringers HEPES containing 200 mM TRIS buffer, pH 7.5. The binding reaction was terminated by filtration of the protein containing bound ligand onto glass fiber filters (Micro Filtration Systems) that had been soaked in buffer containing 0.5 percent polyethyleneimine. Filtration vacuum was -50 to -100 torr. Each filter was washed five times with 3 ml of ice-cold buffer. The filtration apparatus was cooled to 2° C. before use and was kept cold through the filtration process. […] The inhibition of L-[^3 H]nicotine binding by test compounds was determined by including one of eight different concentrations of the test compound in the incubation.

SMILES: CN1CCC[C@@H]1c1cccnc1 [(R)-(+)-nicotine]
- Ki: 113 nM
